Measured values: ChEMBL document CHEMBL6182898, “Design, synthesis and bioevaluation of novel hydrazide derivatives as enhancers of immunotherapy and DNA-damage response in antitumor therapy” (Eur J Med Chem, 2025)
Calls of active or inactive are those of the source. The rule behind the calls is not given here.

Experiments:
[1] = test system: B16-F10; assay: Induction of antitumor immunity in mouse B16-F10 cells implanted in male C57BL/6J mouse assessed as CD3+CD8+ T cell infiltration at 50 mg/kg, IG treated for 14 days consecutively by flow cytometry (reference value: 10 %); type: functional; conditions: time 14 day
[2] = biological target: T1, Histone deacetylase 3 (Mus musculus) (UniProt O88895); assay: In vivo inhibition of HDAC3 in mouse B16-F10 cells implanted in male C57BL/6J mouse assessed as increase in Ac-H3 level at 50 mg/kg, IG treated for 14 days consecutively by Western blot analysis; type: functional, organism-based; conditions: time 14.0 day
T1 sequence (whole entry): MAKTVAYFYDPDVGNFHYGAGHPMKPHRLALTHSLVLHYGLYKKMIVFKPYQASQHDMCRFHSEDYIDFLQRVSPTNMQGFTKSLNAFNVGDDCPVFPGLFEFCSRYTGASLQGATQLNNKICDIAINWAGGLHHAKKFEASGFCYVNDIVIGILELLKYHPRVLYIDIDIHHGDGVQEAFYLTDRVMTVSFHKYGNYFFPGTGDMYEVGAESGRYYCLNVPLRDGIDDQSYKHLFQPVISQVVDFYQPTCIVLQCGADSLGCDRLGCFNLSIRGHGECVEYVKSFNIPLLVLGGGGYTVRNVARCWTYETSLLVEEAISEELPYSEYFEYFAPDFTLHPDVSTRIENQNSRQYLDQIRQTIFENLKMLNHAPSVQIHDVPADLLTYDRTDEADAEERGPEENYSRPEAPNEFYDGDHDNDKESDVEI

[3] = biological target: T1, Histone deacetylase 3 (Mus musculus); assay: In vivo inhibition of HDAC3 in mouse B16-F10 cells implanted in male C57BL/6J mouse assessed as decrease in PD-L1 level at 50 mg/kg, IG treated for 14 days consecutively by Western blot analysis; type: functional, organism-based; conditions: time 14.0 day
[4] = test system: B16-F10; assay: Induction of antitumor immunity in mouse B16-F10 cells implanted in male C57BL/6J mouse assessed as CD3+CD4+ T cell infiltration at 50 mg/kg, IG treated for 14 days consecutively by flow cytometry (reference value: 7.4 %); type: functional; conditions: time 14 day
[5] = test system: 4T1; assay: Synergistic induction of DNA damage in mouse 4T1 cells assessed as decrease in PARP1 level at 1 uM incubated for 24 hrs in presence of Olaparib by Western blot analysis; type: functional, cell-based
[6] = test system: Mus musculus; assay: Effect on Ac-alpha-tubulin in mouse B16-F10 cells implanted in male C57BL/6J mouse at 50 mg/kg, IG treated for 14 days consecutively by Western blot analysis; type: functional, organism-based; conditions: time 14.0 day
[7] = biological target: T1, Histone deacetylase 3 (Mus musculus); assay: In vivo inhibition of HDAC3 in mouse B16-F10 cells implanted in male C57BL/6J mouse assessed as increase in Ac-H3 level at 50 mg/kg, IG treated for 14 days consecutively by immunofluorescence based analysis; type: functional, organism-based; conditions: time 14.0 day
[8] = test system: 4T1; assay: Induction of DNA damage in mouse 4T1 cells assessed as decrease in PARP1 level at 5 uM by immunofluorescence based analysis; type: functional, cell-based
[9] = test system: 4T1; assay: Induction of DNA damage in mouse 4T1 cells assessed as decrease in PARP1 level at 2 uM incubated for 24 hrs by Western blot analysis; type: functional, cell-based
[10] = test system: 4T1; assay: Induction of DNA damage in mouse 4T1 cells assessed as increase in gamma-H2AX level at 5 uM by immunofluorescence based analysis; type: functional, cell-based
[11] = test system: 4T1; assay: Induction of DNA damage in mouse 4T1 cells assessed as increase in gamma-H2AX level at 2 uM incubated for 24 hrs by Western blot analysis; type: functional, cell-based
[12] = test system: 4T1; assay: Synergistic induction of DNA damage in mouse 4T1 cells assessed as increase in gamma-H2AX level at 1 uM incubated for 24 hrs in presence of Olaparib by Western blot analysis; type: functional, cell-based
[13] = test system: B16-F10; assay: Induction of antitumor immunity in mouse B16-F10 cells implanted in male C57BL/6J mouse assessed as CD3+CD8+ T cell infiltration at 20 mg/kg, IG treated for 14 days consecutively by flow cytometry (reference value: 10 %); type: functional; conditions: time 14 day
[14] = test system: B16-F10; assay: Induction of antitumor immunity in mouse B16-F10 cells implanted in male C57BL/6J mouse assessed as CD3+CD4+ T cell infiltration at 20 mg/kg, IG treated for 14 days consecutively by flow cytometry (reference value: 7.4 %); type: functional; conditions: time 14 day
[15] = test system: B16-F10; assay: Antitumor activity against mouse B16-F10 cells implanted in male C57BL/6J mouse at 20 mg/kg, IG treated for 14 days consecutively relative to control; type: functional; conditions: B16-F10, po, 336 h, time 14 day, read-out: TGI
[16] = test system: B16-F10; assay: cells; type: functional; conditions: Mus musculus, time 72 hrs
[17] = biological target: Histone deacetylase 1 (Homo sapiens, UniProt Q13547); assay: Inhibition of HDAC1 (unknown origin)
[18] = test system: K562; assay: cells; type: functional; conditions: Homo sapiens, time 72 hrs
[19] = test system: B16-F10; assay: Antiproliferative activity against mouse B16-F10 cells incubated for 72 hrs by MTT assay; type: functional, cell-based; conditions: B16-F10, 72 h
[20] = test system: HCT-116; assay: Antiproliferative activity against human HCT-116 cells incubated for 72 hrs by MTT assay; type: functional, cell-based; conditions: HCT-116, 72 h
[21] = biological target: T2, Histone deacetylase 8 (Homo sapiens, UniProt Q9BY41); assay: Inhibition of HDAC8 (unknown origin)
T2 sequence (Q9BY41 whole entry): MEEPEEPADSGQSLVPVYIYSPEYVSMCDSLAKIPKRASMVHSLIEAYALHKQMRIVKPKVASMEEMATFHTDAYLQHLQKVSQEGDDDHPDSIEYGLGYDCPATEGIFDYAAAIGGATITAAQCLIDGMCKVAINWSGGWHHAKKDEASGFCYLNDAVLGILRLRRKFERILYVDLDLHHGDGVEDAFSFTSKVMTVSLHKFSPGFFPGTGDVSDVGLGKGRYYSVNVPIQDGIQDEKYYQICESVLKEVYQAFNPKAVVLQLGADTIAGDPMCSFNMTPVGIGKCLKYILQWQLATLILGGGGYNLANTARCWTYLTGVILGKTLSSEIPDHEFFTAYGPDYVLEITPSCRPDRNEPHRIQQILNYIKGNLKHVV

[22] = test system: K562; assay: Antiproliferative activity against human K562 cells incubated for 72 hrs by CCK8 assay; type: functional, cell-based; conditions: K562, 72 h
[23] = test system: SK-OV-3; assay: Antiproliferative activity against human SK-OV-3 cells incubated for 72 hrs by MTT assay; type: functional, cell-based; conditions: SK-OV-3, 72 h
[24] = biological target: Histone deacetylase 3 (Homo sapiens, UniProt O15379); assay: Inhibition of HDAC3 (unknown origin)
[25] = Antiproliferative activity against human HK-2 cells incubated for 72 hrs by MTT assay
[26] = test system: HCT-116; assay: cells; type: functional; conditions: Homo sapiens, time 72 hrs
[27] = test system: 4T1; assay: Antiproliferative activity against mouse 4T1 cells incubated for 72 hrs by MTT assay; type: functional, cell-based; conditions: 4T1, 72 h
[28] = test system: SK-OV-3; assay: cells; type: functional; conditions: Homo sapiens, time 72 hrs
[29] = biological target: T3, Protein deacetylase HDAC6 (Homo sapiens, UniProt Q9UBN7); assay: Inhibition of HDAC6 (unknown origin)
T3 sequence (Q9UBN7 whole entry): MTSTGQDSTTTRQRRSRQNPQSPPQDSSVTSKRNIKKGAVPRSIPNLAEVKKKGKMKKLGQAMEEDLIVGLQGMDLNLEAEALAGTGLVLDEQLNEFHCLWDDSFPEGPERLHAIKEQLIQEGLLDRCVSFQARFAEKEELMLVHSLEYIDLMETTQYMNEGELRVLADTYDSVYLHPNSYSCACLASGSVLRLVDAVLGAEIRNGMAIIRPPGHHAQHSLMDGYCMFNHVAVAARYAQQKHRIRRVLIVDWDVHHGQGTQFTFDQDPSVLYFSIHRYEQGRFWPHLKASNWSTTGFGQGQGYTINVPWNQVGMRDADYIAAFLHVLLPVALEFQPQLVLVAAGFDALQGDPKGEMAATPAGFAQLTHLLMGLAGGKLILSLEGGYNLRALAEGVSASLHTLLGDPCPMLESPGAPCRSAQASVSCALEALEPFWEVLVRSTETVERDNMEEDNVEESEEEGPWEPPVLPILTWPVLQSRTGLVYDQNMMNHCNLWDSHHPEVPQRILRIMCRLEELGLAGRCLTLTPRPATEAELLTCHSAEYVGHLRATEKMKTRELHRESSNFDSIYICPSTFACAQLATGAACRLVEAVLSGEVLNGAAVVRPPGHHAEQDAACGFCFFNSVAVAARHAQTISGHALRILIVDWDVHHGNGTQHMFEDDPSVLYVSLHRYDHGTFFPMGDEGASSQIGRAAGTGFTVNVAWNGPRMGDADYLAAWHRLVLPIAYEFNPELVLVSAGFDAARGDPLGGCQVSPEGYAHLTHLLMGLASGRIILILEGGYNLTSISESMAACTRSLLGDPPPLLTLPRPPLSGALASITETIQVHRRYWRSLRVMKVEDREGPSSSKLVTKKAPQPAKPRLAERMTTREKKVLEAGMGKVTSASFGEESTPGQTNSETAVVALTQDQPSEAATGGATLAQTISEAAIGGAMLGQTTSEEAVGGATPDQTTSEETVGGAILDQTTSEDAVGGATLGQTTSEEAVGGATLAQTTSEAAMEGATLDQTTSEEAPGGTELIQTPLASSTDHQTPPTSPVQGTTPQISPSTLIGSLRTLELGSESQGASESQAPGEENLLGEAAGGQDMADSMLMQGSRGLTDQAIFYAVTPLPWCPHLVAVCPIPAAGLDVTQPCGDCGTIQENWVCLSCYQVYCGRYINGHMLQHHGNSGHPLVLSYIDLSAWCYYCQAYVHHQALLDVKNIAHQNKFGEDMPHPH

[30] = test system: 4T1; assay: cells; type: functional; conditions: Mus musculus, time 72 hrs

Chain of Histone deacetylase 3 (O15379 whole entry): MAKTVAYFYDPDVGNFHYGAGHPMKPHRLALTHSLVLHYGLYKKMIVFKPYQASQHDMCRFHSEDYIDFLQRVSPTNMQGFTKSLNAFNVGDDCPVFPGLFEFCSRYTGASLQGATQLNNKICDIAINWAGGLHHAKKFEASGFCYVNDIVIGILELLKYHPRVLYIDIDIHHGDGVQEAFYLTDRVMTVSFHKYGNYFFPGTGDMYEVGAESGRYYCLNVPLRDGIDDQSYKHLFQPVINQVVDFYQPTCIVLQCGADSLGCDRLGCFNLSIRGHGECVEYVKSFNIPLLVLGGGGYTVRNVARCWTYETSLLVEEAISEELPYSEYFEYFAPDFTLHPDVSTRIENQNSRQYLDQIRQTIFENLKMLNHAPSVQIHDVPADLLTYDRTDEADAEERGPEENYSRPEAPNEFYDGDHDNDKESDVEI
Chain of Histone deacetylase 1 (Q13547 whole entry): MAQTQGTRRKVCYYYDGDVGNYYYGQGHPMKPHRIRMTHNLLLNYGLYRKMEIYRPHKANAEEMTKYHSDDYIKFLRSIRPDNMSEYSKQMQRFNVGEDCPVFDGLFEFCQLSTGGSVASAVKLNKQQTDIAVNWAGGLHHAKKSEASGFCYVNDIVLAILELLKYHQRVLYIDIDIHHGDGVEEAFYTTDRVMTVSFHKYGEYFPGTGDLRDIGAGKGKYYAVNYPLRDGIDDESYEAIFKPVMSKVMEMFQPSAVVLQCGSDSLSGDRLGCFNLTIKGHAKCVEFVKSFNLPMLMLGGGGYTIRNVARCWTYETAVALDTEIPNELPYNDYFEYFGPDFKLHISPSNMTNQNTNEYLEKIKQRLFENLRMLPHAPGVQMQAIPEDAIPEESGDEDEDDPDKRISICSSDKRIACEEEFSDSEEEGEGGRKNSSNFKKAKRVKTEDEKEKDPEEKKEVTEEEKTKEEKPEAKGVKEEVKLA

SMILES: O=C(CCCCCCC(=O)Nc1ccccc1)NO [VORINOSTAT]
- Activity [1]: 17%
- inhibition [2]: Active
- inhibition [3]: Active
- Activity [4]: 18%
- Activity [5]: Active
- Activity [6]: No effect
- inhibition [7]: Active
- Activity [8]: Active
- Activity [9]: Active
- Activity [10]: Active
- Activity [11]: Active
- Activity [12]: Active

SMILES: Cc1c(COc2cc(OCc3cccc(C#N)c3)c(CNC(C)(C)C(=O)O)cc2Cl)cccc1-c1ccccc1
- Activity [13]: 31%
- Activity [14]: 23%
- inhibition in vivo at 20 mg/kg [15]: 33%

SMILES: CCCNNC(=O)CCCCCCNC(=O)c1cnc(-c2ccc3ccccc3c2)s1
- inhibition at 10 µM [16]: 57.6%
- IC50 [17]: 3.26 µM
- inhibition at 10 µM [18]: < 50%
- IC50 [19]: 11.1 µM
- IC50 [20]: 4.14 µM
- IC50 [21]: > 10 µM
- IC50 [22]: 2.71 µM
- IC50 [23]: 4.48 µM
- IC50 [24]: 0.55 µM
- IC50 at 72 h [25]: 10.8 µM
- inhibition at 10 µM [26]: 94.7%
- IC50 [27]: 14.4 µM
- inhibition at 10 µM [28]: 81.5%
- IC50 [29]: > 10 µM
- inhibition at 10 µM [30]: < 20%
